Holding throughout (format): cell-based, murine and human
Common to all, as to conditions: GAL4-PPAR LBD chimera

The target in assay [1] is T1, PPAR-gamma (UniProt P37231).
T1 sequence (P37231 1-505): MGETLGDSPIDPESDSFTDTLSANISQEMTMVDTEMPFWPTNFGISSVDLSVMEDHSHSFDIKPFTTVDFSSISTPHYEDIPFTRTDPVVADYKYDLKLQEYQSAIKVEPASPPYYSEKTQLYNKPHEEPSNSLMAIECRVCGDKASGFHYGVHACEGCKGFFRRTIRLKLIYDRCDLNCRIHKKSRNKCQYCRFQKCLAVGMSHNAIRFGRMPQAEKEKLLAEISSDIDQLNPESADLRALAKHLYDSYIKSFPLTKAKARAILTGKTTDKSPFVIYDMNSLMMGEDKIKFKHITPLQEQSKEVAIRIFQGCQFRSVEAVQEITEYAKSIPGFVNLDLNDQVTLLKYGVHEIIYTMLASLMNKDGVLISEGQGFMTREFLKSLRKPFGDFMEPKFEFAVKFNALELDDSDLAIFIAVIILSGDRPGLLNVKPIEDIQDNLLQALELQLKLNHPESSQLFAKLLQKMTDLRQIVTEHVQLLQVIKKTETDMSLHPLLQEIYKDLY
As to the kind of experiment: PPAR-gamma transactivation assay (GAL4 chimera, luciferase reporter) in CV-1 cells. From the text:
(§1) Compounds may be screened for functional potency in transient transfection assays in CV-1 cells for their ability to activate the PPAR subtypes (transactivation assay). A previously established chimeric receptor system was utilized to allow comparison of the relative transcriptional activity of the receptor subtypes on the same synthetic response element and to prevent endogenous receptor activation from complicating the interpretation of results. See, for example, Lehmann, J. M.; Moore, L. B.; Smith-Oliver, T. A; Wilkinson, W. O.; Willson, T. M.; Kliewer, S. A., An antidiabetic thiazolidinedione is a high affinity ligand for peroxisome proliferator-activated receptor […], J. Biol. Chem., 1995, 270, 12953-6. The ligand binding domains for murine and human PPAR-alpha, PPAR-gamma, and PPAR-delta are each fused to the yeast transcription factor GAL4 DNA binding domain. CV-1 cells were transiently transfected with expression vectors for the respective PPAR chimera along with a reporter construct containing four or five copies of the GAL4 DNA binding site driving expression of luciferase. After 8-16 h, the cells are replated into multi-well assay plates and the media is exchanged to phenol-red free DME medium supplemented with 5% delipidated calf serum. 4 hours after replating, cells were treated with either compounds or 1% DMSO for 20-24 hours. Luciferase activity was then assayed with Britelite (Perkin Elmer) following the manufacturer's protocol and measured with either the Perkin Elmer Viewlux or Molecular Devices Acquest (see, for example, Kliewer, S. A., et. al. Cell 1995, 83, 813-819). Rosiglitazone is used as a positive control in the PPARγ assay. Wy-14643 and GW7647 are used as positive controls in the PPARα assay. GW501516 is used as the positive control in the PPARδ assay.
(§2) Compounds of Examples 1-141 were assayed to measure their biological activity with respect to their EC50 values for modulating PPAR-alpha, PPAR-gamma, and PPAR-delta as set forth in Table 1.
In general terms: In a reporter assay the amount or activity of a reporter protein is the signal.

Assay [2] has as its target T2, PPAR-alpha (UniProt Q07869).
T2 sequence (Q07869 1-468): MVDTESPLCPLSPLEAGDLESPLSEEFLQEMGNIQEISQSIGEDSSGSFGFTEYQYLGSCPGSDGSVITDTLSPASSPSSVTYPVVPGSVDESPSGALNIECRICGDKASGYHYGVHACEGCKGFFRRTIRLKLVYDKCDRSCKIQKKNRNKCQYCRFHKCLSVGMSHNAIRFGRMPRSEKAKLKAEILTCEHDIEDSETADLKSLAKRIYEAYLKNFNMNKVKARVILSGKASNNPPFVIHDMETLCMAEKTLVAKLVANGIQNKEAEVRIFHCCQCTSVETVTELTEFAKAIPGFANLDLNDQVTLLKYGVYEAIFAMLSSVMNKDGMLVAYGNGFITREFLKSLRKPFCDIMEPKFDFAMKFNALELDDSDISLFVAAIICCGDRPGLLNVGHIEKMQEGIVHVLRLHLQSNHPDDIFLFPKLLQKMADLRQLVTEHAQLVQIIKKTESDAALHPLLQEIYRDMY
Nature of the assay: PPAR-alpha transactivation assay (GAL4 chimera, luciferase reporter) in CV-1 cells.
Excerpt: as §1, §2

Assay [3] has as its target T3, PPAR-delta (UniProt Q03181).
T3 sequence (Q03181 1-441): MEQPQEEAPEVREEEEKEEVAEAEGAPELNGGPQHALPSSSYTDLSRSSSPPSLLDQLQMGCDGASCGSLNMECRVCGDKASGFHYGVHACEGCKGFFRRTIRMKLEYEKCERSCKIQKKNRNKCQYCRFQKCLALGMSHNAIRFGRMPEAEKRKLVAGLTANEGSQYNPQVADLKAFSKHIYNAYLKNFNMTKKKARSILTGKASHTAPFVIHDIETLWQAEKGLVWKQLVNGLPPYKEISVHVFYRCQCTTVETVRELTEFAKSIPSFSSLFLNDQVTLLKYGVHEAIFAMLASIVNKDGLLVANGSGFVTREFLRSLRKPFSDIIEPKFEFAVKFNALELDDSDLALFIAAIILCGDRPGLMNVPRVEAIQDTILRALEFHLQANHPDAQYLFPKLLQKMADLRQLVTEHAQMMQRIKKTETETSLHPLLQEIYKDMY
As to the kind of experiment: PPAR-delta transactivation assay (GAL4 chimera, luciferase reporter) in CV-1 cells.
Excerpt: as §1, §2

As a reminder, the EC50 is the concentration at which the effect is half-maximal. High values mean a need for much substance, low ones an effect from little substance.

On to `C[C@@H]1CN(c2ccc(C(F)(F)F)c(Cl)c2)C[C@H](C)N1S(=O)(=O)c1cccc2c1CC(C(=O)O)C2` (relative stereo) [Example 82, 4-[4-(3-chloro-4-trifluoromethyl-phenyl)-cis-2,6-dimethyl-piperazine-1-sulfonyl]-indan-2-carboxylic acid], for which the EC50 in assay [1] was more than 100 µM; in assay [2] it was more than 100 µM; in assay [3], less than 5 µM.
On to `O=C(O)C1Cc2cccc(S(=O)(=O)N3CCN(c4ccc(C(F)(F)F)cn4)CC3)c2C1` (single isomer, unassigned) [Example 11], for which the concentration for a half-maximal effect (EC50) in assay [1] was less than 5 µM; in assay [2], 5 to 100 µM; in assay [3], less than 5 µM.
For `C[C@@H]1CN(c2ccc(C(F)(F)F)cn2)C[C@H](C)N1S(=O)(=O)c1ccc2c(c1)C(C(=O)O)CC2` (single isomer, unassigned) [Example 75, 6-[cis-2,6-dimethyl-4-(5-trifluoromethylpyridin-2-yl)-piperazine-1-sulfonyl]-indan-1-carboxylic acid], the values for the EC50 in assay [1], in assay [2] and in assay [3] were 5 to 100 µM, 5 to 100 µM and less than 5 µM, respectively.
Turning to `C[C@@H]1CN(c2ccc(C(F)(F)F)cn2)C[C@H](C)N1S(=O)(=O)c1ccc2c(c1)C(C(=O)O)CC2` (single isomer, unassigned) [Example 76, 6-[cis-2,6-dimethyl-4-(5-trifluoromethylpyridin-2-yl)-piperazine-1-sulfonyl]-indan-1-carboxylic acid], the values for the EC50 in assay [1], in assay [2] and in assay [3] were more than 100 µM, more than 100 µM and less than 5 µM, respectively.
`C[C@@H]1CN(c2ccc(OC(F)(F)F)cc2)C[C@H](C)N1S(=O)(=O)c1cccc2c1CC(C(=O)O)C2` (single isomer, unassigned) [Example 80]: the EC50 in assay [1] was more than 100 µM; in assay [2], more than 100 µM; in assay [3], less than 5 µM.
On to `CC1CN(S(=O)(=O)c2cccc3c2CC(C(=O)O)C3)C(C)CN1c1ccc(C(F)(F)F)cn1` (single isomer, unassigned) [Example 118, 4-[2S,5S-dimethyl-4-(5-trifluoromethyl-pyridin-2-yl)-piperazine-1-sulfonyl]-indan-2-carboxylic acid], for which the EC50 was 5 to 100 µM in assay [1], more than 100 µM in assay [2] and less than 5 µM in assay [3].
As to `CC1CN(S(=O)(=O)c2cccc3c2CC(C(=O)O)C3)C(C)CN1c1ccc(C(F)(F)F)cn1` (single isomer, unassigned) [Example 119, 4-[2S,5S-dimethyl-4-(5-trifluoromethyl-pyridin-2-yl)-piperazine-1-sulfonyl]-indan-2-carboxylic acid], the EC50 was more than 100 µM in assay [1], more than 100 µM in assay [2] and 5 to 100 µM in assay [3].
`C[C@@H]1CN(c2ccc(Cl)cc2)C[C@H](C)N1S(=O)(=O)c1cccc2c1CC(C(=O)O)C2` (single isomer, unassigned) [Example 127, 4-(4-(4-chlorophenyl)-cis-2,6-dimethylpiperazin-1-ylsulfonyl)-2,3-dihydro-1H-indene-2-carboxylic acid]: the figures for the EC50 in assay [1], in assay [2] and in assay [3] were more than 100 µM, more than 100 µM and less than 5 µM, respectively.
Regarding `C[C@@H]1CN(c2ccc(Cl)cc2)C[C@H](C)N1S(=O)(=O)c1cccc2c1CC(C(=O)O)C2` (single isomer, unassigned) [Example 128, 4-(4-(4-chlorophenyl)-cis-2,6-dimethylpiperazin-1-ylsulfonyl)-2,3-dihydro-1H-indene-2-carboxylic acid], the EC50 in assay [1] is more than 100 µM; in assay [2], more than 100 µM; in assay [3], 5 to 100 µM.
`C[C@@H]1CN(c2cccc(OC(F)(F)F)c2)C[C@H](C)N1S(=O)(=O)c1cccc2c1CC(C(=O)O)C2` (single isomer, unassigned) [Example 129, 4-[cis-2,6-dimethyl-4-(3-trifluoromethoxyphenyl)piperazin-1-ylsulfonyl]-2,3-dihydro-1H-indene-2-carboxylic acid]: the EC50 was more than 100 µM in assay [1], more than 100 µM in assay [2] and less than 5 µM in assay [3].
As to `C[C@@H]1CN(c2cccc(OC(F)(F)F)c2)C[C@H](C)N1S(=O)(=O)c1cccc2c1CC(C(=O)O)C2` (single isomer, unassigned) [Example 130, 4-[cis-2,6-dimethyl-4-(3-trifluoromethoxyphenyl)piperazin-1-ylsulfonyl]-2,3-dihydro-1H-indene-2-carboxylic acid], the figures for the EC50 in assay [1], in assay [2] and in assay [3] were more than 100 µM, more than 100 µM and 5 to 100 µM, respectively.
`C[C@@H]1CN(c2ccc(C(F)(F)F)c(Cl)c2)C[C@H](C)N1S(=O)(=O)c1cccc2c1CC(C(=O)O)C2` (single isomer, unassigned) [Example 138, 4-(4-(3-chloro-4-(trifluoromethyl)phenyl)-cis-2,6-dimethylpiperazin-1-ylsulfonyl)-2,3-dihydro-1H-indene-2-carboxylic acid]: the EC50 is more than 100 µM in assay [1], more than 100 µM in assay [2] and less than 5 µM in assay [3].
As for `C[C@@H]1CN(c2ccc(C(F)(F)F)c(Cl)c2)C[C@H](C)N1S(=O)(=O)c1cccc2c1CC(C(=O)O)C2` (single isomer, unassigned) [Example 139, 4-(4-(3-chloro-4-(trifluoromethyl)phenyl)-cis-2,6-dimethylpiperazin-1-ylsulfonyl)-2,3-dihydro-1H-indene-2-carboxylic acid], the EC50 in assay [1] is more than 100 µM; in assay [2] it was more than 100 µM; in assay [3], 5 to 100 µM.
Take `C[C@@H]1CN(Cc2ccc(OC(F)(F)F)cc2)C[C@H](C)N1S(=O)(=O)c1cccc2c1CC(C(=O)O)C2` (single isomer, unassigned) [Example 140]: the EC50 in assay [1] is 5 to 100 µM; in assay [2], more than 100 µM; in assay [3], less than 5 µM.
For `C[C@@H]1CN(Cc2ccc(OC(F)(F)F)cc2)C[C@H](C)N1S(=O)(=O)c1cccc2c1CC(C(=O)O)C2` (single isomer, unassigned) [Example 141], in that order: more than 100 µM, more than 100 µM and 5 to 100 µM.
Regarding `C[C@@H]1[C@H](C)N(c2ccc(C(F)(F)F)cn2)CCN1S(=O)(=O)c1ccc2c(c1)C(C(=O)O)CC2` (stereo in doubt) [Example 86, 6-[2,3-Dimethyl-4-(5-trifluoromethyl-pyridin-2-yl)-piperazine-1-sulfonyl]-indan-1-carboxylic acid], the EC50 in assay [1], in assay [2] and in assay [3] was less than 5 µM each time.

The values are drawn from patent publication US7517884B2 (Kalypsys Inc., priority 1998, dated 2009).
